Measured values as given in patent US8367313B2, “Method of determining sperm capacitation” (Cornell University, priority 2003, dated 2013).
“Also recorded” adds a separate entry of the source. Where two headings read alike, the source gives them in different places.

Assays:
[1] = test system: murine sperm; test: Protein tyrosine phosphorylation / capacitation of sperm; type: cell-based, mouse
[2] = test system: GM1 localization in murine sperm; type: cell-based, mouse
[3] = test system: sterols in sperm plasma membrane; settings: exposure of sperm to sterol acceptor; cited from earlier work
[4] = incubation with the stimulus alone
[5] = Fixative A: 0.004% paraformaldehyde, mouse sperm
[6] = Fixative B: 1.25% paraformaldehyde, 2.5% glutaraldehyde, 100 mM sodium cacodylate, 0.5 mM CaCl2
[7] = Fixative C: 4% paraformaldehyde, 0.1% glutaraldehyde, 1 mM CaCl2

[Ca+2] [Ca^++]
ability to cause tyrosine phosphorylation or capacitation [1, 4]: not sufficient

O=C([O-])O.[Na+] [NaHCO3]
ability to cause tyrosine phosphorylation or capacitation [1]: not sufficient | GM1 staining localization after exposure to stimulus [2]: staining was observed in the apical acrosome and post-acrosomal region | sperm with Pattern D (diffuse) [2]: 3.2%

(2-hydroxypropyl)-β-cyclodextrin [2-OHCD]
ability to cause tyrosine phosphorylation or capacitation [1, 4]: not sufficient | shift in CTb labeling pattern (FIG. 3/FIG. 4 patterns A, B, C) ([2]; 45 minute incubation, 10 mM HCO3− or 3 mM 2-OHCD, 0.004% paraformaldehyde): shifts to pattern “C.” | sperm with Pattern A (acrosomal) [2, 5]: Ns | sperm with Pattern AA/PA (apical acrosome and post-acrosomal) [2, 5]: 28.8% | sperm with Pattern D (diffuse) [2, 5]: 40.4% | sperm with Pattern PA (post-acrosomal) [2, 5]: 37.9% | sperm with Pattern D (diffuse) ([2]; Fixative A: 0.004% paraformaldehyde, mouse sperm, listed as cyclodextrin): approximately 40% | sperm with Pattern A (acrosomal) [2, 6]: 41.8% | sperm with Pattern AA/PA (apical acrosome and post-acrosomal) [2, 6]: 0% | sperm with Pattern D (diffuse) [2, 6]: 0% | sperm with Pattern PA (post-acrosomal) [2, 6]: 58.2% | sperm with Pattern A (acrosomal) [2, 7]: 80.5% | sperm with Pattern AA/PA (apical acrosome and post-acrosomal) [2, 7]: 0.2% | sperm with Pattern D (diffuse) [2, 7]: 0% | sperm with Pattern PA (post-acrosomal) [2, 7]: 19.4% | GM1 staining localization after exposure to stimulus ([2]; sperm fixed with 0.004% paraformaldehyde): a signal in the plasma membrane overlying the acrosome as well as in the post-acrosomal region | effect on filipin-sterol complexes (FSC) [3]: loss of most FSC from the plasma membrane overlying the acrosome

bovine serum albumin [BSA]
effect on filipin-sterol complexes (FSC) [3]: loss of most FSC from the plasma membrane overlying the acrosome

CC(=O)[C@H]1CC[C@H]2[C@@H]3CCC4=CC(=O)CC[C@]4(C)[C@H]3CC[C@]12C [progesterone]
GM1 staining localization after induction of acrosomal exocytosis ([2]; after capacitating incubation (bicarbonate and 2-OHCD), then progesterone 10 μg/ml for 10 minutes): a signal over the apical acrosome alone; also recorded: concentrated in the region of the apical acrosome
